The text below walks through data of PubChem BioAssay AID720570 (Broad Institute, 2013).

Activity calls are given as the source filed them.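 Rule for the calls: active = cell-killing curve crosses a set limit at a concentration no more than twice the top valid dose; inconclusive = flat curve with a 30 to 70% loss, or a poor fit; inactive = signal rising instead of falling, and the rest.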

The nature of the first assay: TC71 Ewing sarcoma cell killing, confirmation, luminescence, cherry-picked samples, retest (AID 720570). To be noted: TC71 Ewing sarcoma viability, CellTiter-Glo ATP, 72 h; at 23.5 µM (top of the series). (In general: Cellular ATP, detected with luciferase, serves as a proxy for viable cell number.)
For the compound `N#C[C@H]1[C@H](c2ccc(C#Cc3ccccc3F)cc2)[C@@H](CO)N1C(=O)C1CCCCC1`, the activity change, negative = cytotoxicity was -17% (inactive).

Still in this assay, the particulars now being: TC71 Ewing sarcoma viability, CellTiter-Glo ATP, 72 h; at 26 µM (top of the series).
As to `O=c1c2ccccc2oc2cc(C#CC3(O)CCCCC3)ccc12`, the activity change, negative = cytotoxicity was -17.6% (inactive). On the same count and under the same terms, with `CC(C)c1ccccc1NC(=O)COC(=O)CCN1C(=O)/C(=C\C=C\c2ccccc2)SC1=S` the figure was 19.1% (inactive); with `CCNC(=O)[C@@H]1[C@@H](CO)[C@@H]2Cn3c(ccc(C4=CCCCC4)c3=O)[C@H]1N2CC`, 8.36% (inactive). Still for that read-out and setting: next, `CCOc1cc2[nH]c(=S)n(Cc3ccc(C(=O)NCCN(CC)CC)cc3)c(=O)c2cc1OCC`: 11.4% (inactive). As to `COc1cc(/C=N/NS(=O)(=O)c2ccc3ccccc3c2)ccc1OCc1ccc(C(=O)O)cc1`, the activity change, negative = cytotoxicity was 12.1% (inactive). The same measure, in the same setting: with `CC(=O)Nc1ccc(OCC(=O)N(CC(C)C)C2CCS(=O)(=O)C2)cc1` (stereo not drawn) the figure was 11.9% (inactive); with `Nc1ccc(-c2cc3ccccc3oc2=O)cc1`, -3.32% (inactive); with `CC(Oc1cccc(Cl)c1)C(=O)NCCCCc1ccccc1` (stereo not drawn), 13.3% (inactive). The same measure, in the same setting: with `O=C(COC(=O)c1ccc[nH]c1=O)Nc1ccc(N2CCCCC2)cc1` the figure was 6.54% (inactive); with `C[C@@H]1CN([C@H](C)CO)C(=O)c2cc(C#CCc3ccccc3)cnc2O[C@@H]1CN(C)Cc1cccc(F)c1`, -4.64% (inactive); with `COC(=O)C[C@@H]1CC[C@@H]2[C@H](COc3ccc(NC(=O)Nc4ccc(C#N)cc4)cc3C(=O)N2C)O1`, 4.12% (inactive).

In the case of `CC(=NNc1ccc2ccccc2n1)c1ccccc1O`, the activity change, negative = cytotoxicity is -20.9% (inactive). As for `O=C1C(=O)N(CCS(=O)(=O)c2ccccc2)c2ccc(Cl)cc21`, the activity change, negative = cytotoxicity was 20.1% (inactive). `COc1ccc(N=C2C(=O)Nc3ccc(C)c(Br)c32)cc1`: the activity change, negative = cytotoxicity is 5.89% (inactive). Same read-out and setting: with `COC(=O)C(CC#Cc1ccc2c(c1)[C@]1(C(=O)N2)[C@H](c2ccc(OCCO)cc2)N2[C@H](c3ccccc3)[C@H](c3ccccc3)OC(=O)[C@H]2[C@@H]1C(=O)N1CCN(c2ncccn2)CC1)C(=O)OC` the figure was 3.63% (inactive); with `Cc1cc(Br)ccc1N=C1C(=O)Nc2ccccc21`, 6.85% (inactive); with `c1ccc(-c2ccc([C@H]3[C@H]4CNC[C@@H]3N4Cc3cc(-c4ccccc4)on3)cc2)cc1`, -7.89% (inactive). Still for that read-out and setting: next, `COC(=O)C[C@@H]1CC[C@@H]2[C@@H](COc3ccc(NC(=O)Nc4cccc(F)c4)cc3C(=O)N2C)O1`: 5.61% (inactive).

As for `COC(=O)C[C@@H]1CC[C@@H]2[C@H](COc3ccc(NC(=O)c4ccc(F)cc4)cc3C(=O)N2C)O1`, the activity change, negative = cytotoxicity is 15.1% (inactive). Turning to `O=C1c2ccc3c4c(ccc(c24)C(=O)N1c1cccc(O)c1)C(=O)N(c1cccc(O)c1)C3=O`, the activity change, negative = cytotoxicity was -1.18% (inactive). For the compound `C[C@@H]1CN([C@H](C)CO)S(=O)(=O)c2ccc(C#Cc3ccncc3)cc2O[C@@H]1CN(C)C(=O)Nc1ccc2c(c1)OCO2`, the activity change, negative = cytotoxicity is -0.54% (inactive).

With `Cc1ccc(S(=O)(=O)N(C)C[C@H]2Oc3c(cccc3N(C)C)C(=O)N([C@@H](C)CO)C[C@@H]2C)cc1`, the activity change, negative = cytotoxicity is -6.3% (inactive).
